{"source": "patent US10414797B2", "about": "“Gelatinase inhibitors and use thereof” (Iproteos S.L, priority 2015, dated 2019)", "biological_target": "MMP-9 (Homo sapiens, UniProt P14780)", "sequence (P14780 107-707 limits assumed)": "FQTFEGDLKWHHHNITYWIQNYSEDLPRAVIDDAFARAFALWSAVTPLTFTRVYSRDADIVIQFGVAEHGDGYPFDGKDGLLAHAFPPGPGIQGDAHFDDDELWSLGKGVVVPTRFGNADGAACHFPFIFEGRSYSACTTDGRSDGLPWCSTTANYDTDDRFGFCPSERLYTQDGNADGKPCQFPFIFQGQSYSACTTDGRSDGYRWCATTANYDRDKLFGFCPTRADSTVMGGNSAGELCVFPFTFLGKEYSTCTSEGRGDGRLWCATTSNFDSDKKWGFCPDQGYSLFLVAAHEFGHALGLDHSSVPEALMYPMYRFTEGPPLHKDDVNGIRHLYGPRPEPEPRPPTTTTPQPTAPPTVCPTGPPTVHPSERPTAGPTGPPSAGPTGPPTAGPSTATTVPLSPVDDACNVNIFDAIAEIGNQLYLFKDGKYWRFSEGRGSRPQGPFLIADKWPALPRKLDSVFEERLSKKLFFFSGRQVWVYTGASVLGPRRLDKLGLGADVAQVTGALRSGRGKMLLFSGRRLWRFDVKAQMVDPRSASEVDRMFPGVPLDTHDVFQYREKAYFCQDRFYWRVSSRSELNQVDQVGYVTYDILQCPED", "assay": "MMP-9 inhibition assay (fluorimetric, DQ gelatin substrate)", "type": "biochemical", "conditions": "recombinant MMP-9 (Merck-Millipore for examples 1 to 9 and comparative examples; Enzo for examples 10 to 16), DQ gelatin 50 μg/mL, 4 hours at room temperature, pH 7.6", "experimental": "All the experiments were done in 1× reaction buffer, which was obtained from a 10× reaction buffer solution. The content of the 10× reaction buffer was: 50 mL of 0.5 M Tris-HCl, 1.5 M NaCl, 50 mM CaCl2 and 2 mM sodium azide at pH 7.6. To obtain the 1× reaction buffer 4 mL of the 10× reaction buffer were diluted in 36 mL of H2O.\nRecombinant MMP-9 expressed was obtained from Merck-Millipore (catalog number PF140-5UG, used in examples 1 to 9 and comparative examples) and Enzo (catalog number-SE360-0010, used in examples 10 to 16). DQ gelatin from pig skin fluorescein conjugated (MMP-9 substrate) was obtained from Life Technologies (catalog number E12055).\nPreparation of the MMP-9 for the activity assay: MMP-9 was provided as a stock solution (0.1 mg/mL). The enzyme was diluted in 1× reaction buffer to a final concentration of 5 μg/mL.\nPreparation of the DQ gelatin (substrate) solution for the activity assay: the solid form of the substrate was dissolved in water in order to obtain a stock solution of 1 mg/mL.\nProcedure: The enzymatic assays were performed in 96-well microtiter plate, which allowed simultaneous monitoring of multiple reactions. For each reaction, 84.6 μL of 1× reaction buffer (pH 7.6), […] of MMP-9 (final concentration 85 ng/mL) and 2 μL of the corresponding new compound were added to each well. A stock solution of new compound was prepared in DMSO (100 mM), and dilutions were prepared from this stock solution with DMSO. Finally, to the mixture contained in each well 10 μL of the substrate were added (final concentration 50 μg/mL). The reaction was incubated for 4 hours at room temperature in an orbital shaker (100 rpm).\nThe inhibitory activity of the new compound was measured fluorimetrically. The excitation and emission wavelengths were 483 and 525 nm, respectively.\nInhibitory activity at several concentration points (ranging from 100 pM to 200 μM MMP) were measured for each compound. The inhibitory activity on MMP-2 and MMP-9 was calculated according to eq 1. For each new compound, the fluorescence in the presence (a) and in the absence (b) of the corresponding MMP was measured. The maximum fluorescence (0% inhibitory activity) was obtained from a sample of the corresponding MMP in the absence of inhibitory compounds. To estimate the inhibitory potency of the novel compounds, activities were plotted against the log concentration of the compound, adjusting to a sigmoid curve using GraphPad Prism software, and the IC50 value, defined as the concentration of compound required to inhibit 50% of the corresponding MMP activity, was determined from resulting curve.\na corresponds to fluorescence intensity in the presence of substrate+test compound+MMP\nb corresponds to the fluorescence intensity in the presence of substrate+tested compound\nc corresponds to the fluorescence intensity in the presence of substrate+MMP\nd corresponds to the fluorescence intensity of the presence of substrate", "note": "Where a SMILES comes first, the peptide text is derived from it. [ ]: non-standard residue; d: D form. The star is where a group is joined. ξ: configuration not given here. Benzoyl(3,5-F2) = O=C(c1cc(F)cc(F)c1)*; NMeIle(3ξ) = CCC(C)[C@H](NC)C(=O)O; NMeF = CN[C@@H](Cc1ccccc1)C(=O)O; Dab = NCC[C@H](N)C(=O)O; NHOH = ON*"}
{"smiles": "CCC(C)[C@@H](C(=O)N[C@@H](CCNC(=O)c1cc(F)cc(F)c1)C(=O)NO)N(C)C(=O)[C@@H]1CCCN1C(=O)[C@H](Cc1ccccc1)N(C)C(C)=O", "note": "(stereo partly drawn) [Example 11, (2 S)-1-[(2S)-2-[acetyl(methyl)amino]-3-phenyl-propanoyl]-N-[(1S)-1-[[(1S)-3-[(3,5-difluorobenzoyl)amino]-1-(hydroxycarbamoyl)propyl]carbamoyl]-2-methyl-butyl]-N-methyl-pyrrolidine-2-carboxamide] (Ac-[NMeF]P[NMeIle(3ξ)][Dab](Benzoyl(3,5-F2))-{NHOH})", "values": [{"measurement": "IC50", "result": 71, "unit": "nM"}]}
{"smiles": "CCCCCCCC(=O)N1CCC[C@H]1C(=O)N(C)[C@H](C(=O)N[C@@H](CCNC(=O)c1cc(F)cc(F)c1)C(=O)NO)C(C)CC", "note": "(stereo partly drawn) [Example 6, (2S)—N-[(1S)-1-[[(1S)-3-[(3,5-difluorobenzoyl)amino]-1-(hydroxycarbamoyl)propyl]carbamoyl]-2-methyl-butyl]-N-methyl-1-octanoyl-pyrrolidine-2-carboxamide]", "values": [{"measurement": "IC50", "result": 733, "unit": "nM"}]}
